Key:
Assay type in all cases: cell-based
[1] = test system: brown-rot fungus Gloeophyllum trabeum; assay: ASTM 1413 standard soil block test, 12 weeks; conditions: 1% treatment, unleached, 12-week soil block test with G. trabeum
Description: The following five wood preservatives were prepared for testing according to ASTM Stanard D 1413. • 1. chlorhexidine (CH)—Omadine^a 1:2 complex • 2. Polyhexamethylene biguanide—Omadine 1:1 complex • 3. Bardac^b 2250—Omadine 1:1 complex • 4. Tetrakis(hydroxylmethyl)phosphonium 0 Omadine 1:1 complex • 5. B-55^c polyionene—Omadine 1:2 complex • a) Omadine is 2-mercapto pyridine N-oxide • b) Barclac 2250 is […] • c) […] is poly(oxyethylene(dimethyliminio)ethylene(dimethylimino)ethylene dichloride Biological Evaluation
The ASTM 1413 standard soil block test was performed (ASTM 1999) Five soil bottles of each treatment and solution concentration (plus untreated controls) were exposed to the brown-rot fungus Gloeophyllum trabeum for 12 weeks. Two soil bottles with no fungus were also run to monitor any leaching of chemicals. Specimens were removed from test after 12 weeks exposure and conditioned until constant weight in the conditioning room (27° C./30°RH). The extent of decay was determined by weight loss.

[2] = test system: Pseudomonas aeruginosa (gram negative); assay: Bacteriostatic activity in Oxoid No. 2 nutrient broth; conditions: 0.1 wt. %, 48 hours incubation
Description: (§1) The bacteriostatic activity of several complexes was investigated by testing at 0.1 wt. % using Oxoid No. 2 nutrient broth and inoculating the broth with 1 ml of a 24 hour broth culture of the test organisms. After incubation at the optimum growth temperature of the organism for 48 hours.
(§2) The organisms tested were:
Pseudomonas aeruginosa (gram negative)

[3] = test system: Staphylococcus aureous (gram positive); assay: as above; conditions: 0.1 wt. %, 48 hours incubation
Description: as §1, §2
Staphylococcus aureous (gram positive)

[4] = test system: Escherichia coli (gram negative); assay: as above; conditions: 0.1 wt. %, 48 hours incubation
Description: as §1, §2
Escherichia coli (gram negative)

Molecule | Wt. Loss % (Fungus) [1] [%] | bacteriostatic activity [2] | bacteriostatic activity [3] | bacteriostatic activity [4]
N=C(NCCCCCCNC(=N)NC(=N)Nc1ccc(Cl)cc1)NC(=N)Nc1ccc(Cl)cc1.On1ccccc1=S.On1ccccc1=S [Compound 6, chlorhexidinium di(2-mercapto-pyridine N-oxides)] | 1.57 | bacteriostatic | bacteriostatic | bacteriostatic
OC[P+](CO)(CO)CO.[O-][n+]1ccccc1[S-] [Compound 8] | −0.07 | bacteriostatic | bacteriostatic | bacteriostatic
N=C(NCCCCCCNC(=N)NC(=N)Nc1ccc(Cl)cc1)NC(=N)Nc1ccc(Cl)cc1.Oc1cc(Cl)ccc1Oc1ccc(Cl)cc1Cl.Oc1cc(Cl)ccc1Oc1ccc(Cl)cc1Cl [Compound 10, chlorhexidinium di (triclosante)] | – | bacteriostatic | bacteriostatic | bacteriostatic
didecyldimethyl ammonium 2-mercapto-benzothiazole [Compound 5] | – | bacteriostatic | bacteriostatic | bacteriostatic

— US7074459B2, “Method for preserving wood” (priority 2003, dated 2006)
